Laboratory results taken from patent US9201014B2, “Development of photostable near-IR cyanine dyes for in vivo imaging” (National University of Singapore, priority 2010, dated 2015).
Blank lines part the entries; values can stand above or below the molecule they belong to.

Legend:
Type in all cases: physicochemical
[1] = Absorbance/fluorescence maxima, quantum yields and extinction coefficients of CyN compounds
Protocol: The absorbance and fluorescence maximum wavelengths and extinction coefficients of CyN-111, 165, 272 and 295 were measured using 10-μM solutions of CyN-111, CyN-165, CyN-272 or CyN-295 in 10 mM HEPES buffer (pH 7.4) containing 1% DMSO. Quantum yields were measured in DMSO, using Cardiogreen as a standard (φ: 0.13, in DMSO).

[2] = Time-course fluorescence measurements (photobleaching rate constants) of CyN and CyNA derivatives in HEPES buffer; conditions: for k, rate of photobleaching: 10 μM in 10 mM HEPES pH 7.4, 1% DMSO, pseudo-first order; for kCyN/kCyNA: ratio of photobleaching rate constants, aqueous media
Protocol: Values were fitted to a non-linear regression one-phase exponential decay (GraphPad Prism 5.0). Detailed statistics for the one-phase decay analysis of the CyN compounds and 1 follow: Photodecomposition rate constants were determined by plotting -ln(F/F0) vs time, and calculated using a pseudo-first order rate equation. See […]., et al., Photochem. Photobiol. 2000, 72, 392-398.

[3] = Rates of photobleaching of CyNA-414 and CyN-414; conditions: 10 μM in 10 mM HEPES pH 7.4, 1% DMSO, xenon flash lamp, 12 hours
Protocol: 10-μM solutions of CyNA-414 and CyN-414 in 10 mM HEPES buffer (pH 7.4) containing 1% DMSO were placed in a 96-well black plate, and fluorescence intensity measurements (n=3) were recorded every 10 minutes for a total period of 12 hours (excitation-emission: 640-750 nm for CyN-414, and 790-820 nm for CyNA-414) under a xenon flash lamp. Values were fitted to a non-linear regression one-phase exponential decay (GraphPad Prism 5.0).

[4] = Absorbance and fluorescence maximum wavelengths and quantum yields of the CyNA library; conditions: for λabs, absorbance maximum wavelength / λem, fluorescence maximum wavelength: CyNA library; for φ, quantum yield: in DMSO, Cardiogreen as standard
Method in brief: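 Absorption and emission maxima and quantum yields of the 80-member amine-derivatized CyNA library were measured on a plate spectrophotometer.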

[5] = Primary screening of photostability of the CyNA library (time-course fluorescence, 8 h); parameters: F/Fo, fluorescent intensity at 8 hours vs 0 hours: unit: %; conditions: 10 μM in HEPES 100 mM pH 7.4, 2% DMSO
Method in brief: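 CyNA dyes at 10 μM in 100 mM HEPES pH 7.4 with 2% DMSO irradiated by xenon lamp for 8 h. Fluorescence (ex/em 790-820 nm) read every 10 min; stability given as F8h/Fo.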

[6] = Primary screen of SERS intensities of CyNAMLA-functionalized AuNPs (compact Raman scanner); conditions: SERS spectra of CyNAMLA-functionalized AuNPs; excitation at 785 nm, laser power 60 mW
Protocol: FIG. 15 is a graph of the comparative surface-enhanced Raman spectroscopy (SERS) intensities of members of the CyNAMLA library measured with an excitation wavelength of 785 nm and a laser power of 60 mW in a compact Raman scanner.
The CyNAMLA compounds were adsorbed onto AuNPs having a diameter of approximately 60 nm, and the SERS properties of the resulting CyNAMLA-functionalized AuNPs were evaluated using a compact Raman scanner. Among metal nanoparticles, AuNPs are particularly suitable for in vivo applications due to their low toxicity, adaptability to bioconjugation, and reproducible signal intensity and quantification.

[7] = Characterization of the CyNAMLA library (absorbance maximum wavelengths); conditions: absorbance maximum wavelength of CyNAMLA library compounds
Protocol: The amine group of 21 was protected using di-tert-butyl dicarbonate then derivatized with 80 different primary amines (for structures, see FIGS. 14A-14D). After acetylation of the newly-introduced amine, the compounds were treated with a solution of TFA-DCM (1:9) to remove the tert-butylcarbamate protecting group. The deprotected amine was then coupled to lipoic acid to yield CyNAMLA derivatives with an average purity of 90% (for HPLC-determined purities, see Table 6).

[8] = Formation of aggregates: absorbance spectrum in DMSO vs PBS
[9] = Photophysical properties of CyNE790 and ICG-sulfo-OSu
Protocol: FIG. 7A is an absorbance spectrum of 10-μM solutions of CyNA-414, CyNE790, ICG and ICG-sulfo-OSu in DMSO and PBS.
FIG. […]
After corroborating the spectral properties of CyNE790 as a fluorescent NIR dye, its applicability for protein conjugation was assessed by comparing CyNE790 to ICG-sulfo-OSu, the commercially available succinidimyl ester of ICG. […] However, the application of ICG to molecular imaging has been limited because its fluorescence is drastically quenched after protein conjugation.

[10] = Photobleaching of CyNE790 and ICG-sulfo-OSu in PBS; conditions: photobleaching experiments
Excerpt: CyNE790 was also compared to ICG-sulfo-OSu, a commercially available succinimidyl ester of ICG (for chemical structures of CyNE790 and ICG-sulfo-OSu, see FIG. 8).

[11] = 10 μM in 10 mM HEPES pH 7.4, 1% DMSO

Structure (SMILES): CCCN1/C(=C/C=C2\CCCC(/C=C/C3=[N+](CCC)c4ccccc4C3(C)C)=C2NCCCOC)C(C)(C)c2ccccc21.[I-] [CyN-165]
- ε, extinction coefficient [1, 11]: 0.352 · 10^5 cm^−1M^−1
- λabs [1, 11]: 640 nm
- λem [1, 11]: 762 nm
- φ, quantum yield ([1]; in DMSO, Cardiogreen as standard): 0.37
- k, rate of photobleaching [2]: 3.49e-05 s⁻¹

Structure (SMILES): CCCN1/C(=C/C=C2\CCCC(/C=C/C3=[N+](CCC)c4ccccc4C3(C)C)=C2NCCCN2CCCCC2C)C(C)(C)c2ccccc21.[I-] (stereo not shown) [CyN-414]
- k, rate of photobleaching [3]: 1.75e-05 s⁻¹

Structure (SMILES): CCCN1/C(=C/C=C2\CCCC(/C=C/C3=[N+](CCC)c4ccccc4C3(C)C)=C2N(CCc2ccccn2)C(C)=O)C(C)(C)c2ccccc21.[I-] [CyNA-111]
- λabs, absorbance maximum wavelength [4]: 804 nm
- λem, fluorescence maximum wavelength [4]: 818 nm
- φ, quantum yield [4]: 0.11
- k, rate of photobleaching [2]: 3.41e-06 s⁻¹
- kCyN/kCyNA [2]: 12
- F/Fo, fluorescent intensity at 8 hours vs 0 hours [5]: 96
- max RFU, maximum relative fluorescence units [5]: 565.6

Structure (SMILES): CCCN1/C(=C/C=C2\CCCC(/C=C/C3=[N+](CCC)c4ccccc4C3(C)C)=C2N(CCCOC)C(C)=O)C(C)(C)c2ccccc21.[I-] [CyNA-165]
- λabs, absorbance maximum wavelength [4]: 806 nm
- λem, fluorescence maximum wavelength [4]: 821 nm
- φ, quantum yield [4]: 0.09
- k, rate of photobleaching [2]: 4.53e-06 s⁻¹
- kCyN/kCyNA [2]: 8
- F/Fo, fluorescent intensity at 8 hours vs 0 hours [5]: 94
- max RFU, maximum relative fluorescence units [5]: 775.1

Structure (SMILES): CCCN1/C(=C/C=C2\CCCC(/C=C/C3=[N+](CCC)c4ccccc4C3(C)C)=C2N(CC)C(C)=O)C(C)(C)c2ccccc21.[I-] [CyNA-295]
- λabs, absorbance maximum wavelength [4]: 806 nm
- λem, fluorescence maximum wavelength [4]: 820 nm
- φ, quantum yield [4]: 0.11
- k, rate of photobleaching [2]: 3.81e-06 s⁻¹
- kCyN/kCyNA [2]: 8
- F/Fo, fluorescent intensity at 8 hours vs 0 hours [5]: 100
- max RFU, maximum relative fluorescence units [5]: 698.6

Structure (SMILES): CCCN1/C(=C/C=C2\CCCC(/C=C/C3=[N+](CCCNC(=O)CCCCC4CCSS4)c4ccccc4C3(C)C)=C2N(Cc2cccc(OC)c2)C(C)=O)C(C)(C)c2ccccc21.O=C([O-])C(F)(F)F (stereo not shown) [CyNAMLA-387]
- Raman intensity [6]: 3910
- λabs (max) [7]: 804 nm

Structure (SMILES): CCCN1/C(=C/C=C2\CCCC(/C=C/C3=[N+](CCCNC(=O)CCCCC4CCSS4)c4ccccc4C3(C)C)=C2N(CCc2ccc(OC)cc2)C(C)=O)C(C)(C)c2ccccc21.O=C([O-])C(F)(F)F (stereo not shown) [CyNAMLA-395]
- Raman intensity [6]: 1876
- λabs (max) [7]: 805 nm

Structure (SMILES): CCCN1/C(=C/C=C2\CCCC(/C=C/C3=[N+](CCCNC(=O)CCCCC4CCSS4)c4ccccc4C3(C)C)=C2N(Cc2cccc(C)c2)C(C)=O)C(C)(C)c2ccccc21.O=C([O-])C(F)(F)F (stereo not shown) [CyNAMLA-398]
- Raman intensity [6]: 2629
- λabs (max) [7]: 805 nm

Structure (SMILES): CCCN1/C(=C/C=C2\CCCC(/C=C/C3=[N+](CCCNC(=O)CCCCC4CCSS4)c4ccccc4C3(C)C)=C2N(Cc2ccccn2)C(C)=O)C(C)(C)c2ccccc21.O=C([O-])C(F)(F)F (stereo not shown) [CyNAMLA-401]
- Raman intensity [6]: 2920
- λabs (max) [7]: 804 nm

Structure (SMILES): CCCN1/C(=C/C=C2\CCCC(/C=C/C3=[N+](CCCNC(=O)CCCCC4CCSS4)c4ccccc4C3(C)C)=C2N(CCc2cccc(F)c2)C(C)=O)C(C)(C)c2ccccc21.O=C([O-])C(F)(F)F (stereo not shown) [CyNAMLA-405]
- Raman intensity [6]: 12149
- λabs (max) [7]: 805 nm

Structure (SMILES): CCCCCCCCCCN(C(C)=O)C1=C(/C=C/C2=[N+](CCCNC(=O)CCCCC3CCSS3)c3ccccc3C2(C)C)CCC/C1=C\C=C1\N(CCC)c2ccccc2C1(C)C.O=C([O-])C(F)(F)F (stereo not shown) [CyNAMLA-407]
- Raman intensity [6]: 3000
- λabs (max) [7]: 806 nm

Continued, values first:

- Raman intensity [6]: 1735
- λabs (max) [7]: 805 nm
Structure (SMILES): CCCN1/C(=C/C=C2\CCCC(/C=C/C3=[N+](CCCNC(=O)CCCCC4CCSS4)c4ccccc4C3(C)C)=C2N(CCCN(C)C)C(C)=O)C(C)(C)c2ccccc21.O=C([O-])C(F)(F)F (stereo not shown) [CyNAMLA-427]

- Raman intensity [6]: 9679
- λabs (max) [7]: 804 nm
Structure (SMILES): CCCN1/C(=C/C=C2\CCCC(/C=C/C3=[N+](CCCNC(=O)CCCCC4CCSS4)c4ccccc4C3(C)C)=C2N(CCc2ccccc2F)C(C)=O)C(C)(C)c2ccccc21.O=C([O-])C(F)(F)F (stereo not shown) [CyNAMLA-477]

- Raman intensity [6]: 5272
- λabs (max) [7]: 805 nm
Structure (SMILES): CCCN1/C(=C/C=C2\CCCC(/C=C/C3=[N+](CCCNC(=O)CCCCC4CCSS4)c4ccccc4C3(C)C)=C2N(Cc2ccc(Cl)cc2Cl)C(C)=O)C(C)(C)c2ccccc21.O=C([O-])C(F)(F)F (stereo not shown) [CyNAMLA-531]

- Raman intensity [6]: 14019
- λabs (max) [7]: 805 nm
Structure (SMILES): CCCN1/C(=C/C=C2\CCCC(/C=C/C3=[N+](CCCNC(=O)CCCCC4CCSS4)c4ccccc4C3(C)C)=C2N(Cc2ccc(Cl)c(Cl)c2)C(C)=O)C(C)(C)c2ccccc21.O=C([O-])C(F)(F)F (stereo not shown) [CyNAMLA-565]

- Raman intensity [6]: 1763
- λabs (max) [7]: 804 nm
Structure (SMILES): CCCN1/C(=C/C=C2\CCCC(/C=C/C3=[N+](CCCNC(=O)CCCCC4CCSS4)c4ccccc4C3(C)C)=C2N(CC(C)CC)C(C)=O)C(C)(C)c2ccccc21.O=C([O-])C(F)(F)F (stereo not shown) [CyNAMLA-574]

- Raman intensity [6]: 11616
- λabs (max) [7]: 804 nm
Structure (SMILES): CCCN1/C(=C/C=C2\CCCC(/C=C/C3=[N+](CCCNC(=O)CCCCC4CCSS4)c4ccccc4C3(C)C)=C2N(CCc2ccccc2-c2ccccc2)C(C)=O)C(C)(C)c2ccccc21.O=C([O-])C(F)(F)F (stereo not shown) [CyNAMLA-599]

- Raman intensity [6]: 18833
- λabs (max) [7]: 804 nm
Structure (SMILES): CCCN1/C(=C/C=C2\CCCC(/C=C/C3=[N+](CCCNC(=O)CCCCC4CCSS4)c4ccccc4C3(C)C)=C2N(CCCN2CCCC2)C(C)=O)C(C)(C)c2ccccc21.O=C([O-])C(F)(F)F (stereo not shown) [CyNAMLA-611]

- Raman intensity [6]: 2455
- λabs (max) [7]: 805 nm
Structure (SMILES): CCCN1/C(=C/C=C2\CCCC(/C=C/C3=[N+](CCCNC(=O)CCCCC4CCSS4)c4ccccc4C3(C)C)=C2N(CCc2ccc(Cl)cc2)C(C)=O)C(C)(C)c2ccccc21.O=C([O-])C(F)(F)F (stereo not shown) [CyNAMLA-677]

- Raman intensity [6]: 8146
- λabs (max) [7]: 806 nm
Structure (SMILES): CCCN1/C(=C/C=C2\CCCC(/C=C/C3=[N+](CCCNC(=O)CCCCC4CCSS4)c4ccccc4C3(C)C)=C2N(CCc2ccc(Cl)cc2Cl)C(C)=O)C(C)(C)c2ccccc21.O=C([O-])C(F)(F)F (stereo not shown) [CyNAMLA-686]

- absorbance maximum in DMSO ([8]; 10 μM, DMSO): 780 nm
- absorbance maximum in PBS ([8]; 10 μM, PBS): 695 nm
- formation of aggregates in aqueous solution ([8]; spectral profile DMSO vs PBS): formation of aggregates
- Quantum Yield (DMSO) ([9]; DMSO, ICG as standard): 12%
- Quantum Yield (aqueous media) ([9]; PBS pH 7.3, 0.1% DMSO): 0.4%
- ε (aqueous media) ([9]; PBS pH 7.3, 0.1% DMSO): 42,000 M^−1 · cm^−1
- maximum relative fluorescence units (rfu) [10]: 136 rfu
Structure (SMILES): CC1(C)C(/C=C/C=C/C=C/C=C2\N(CCCCS(=O)(=O)[O-])c3ccc4ccccc4c3C2(C)C)=[N+](CCCCCC(=O)ON2C(=O)CC(S(=O)(=O)[O-])C2=O)c2ccc3ccccc3c21.[Na+] (stereo not shown) [ICG-sulfo-OSu, reference compound]
